From patent publication US10768157B2, “Materials and methods for the detection of trace amounts of substances in biological and environmental samples” (THE FLORIDA INTERNATIONAL UNIVERSITY BOARD OF TRUSTEES, priority 2015, dated 2020)
Read-outs that look alike come from different tables or passages of the source.

What was measured:
[1] = Maximum adsorption capacity of the sol-gel molecularly imprinted sorbent (six sulfa drugs); assay type: binding; details: 30 mg MIP, mixture of 6 sulfa drugs 10-1000 mg/L
Experimental: In order to calculate the sorption capacity at equilibrium a SPE cartridge packed with 30 mg of MIP particles was used. Experiments under optimum conditions were carried out sequentially on the same SPE cartridge. In each subsequent test, the initial concentration was increased in a range 10-1000 ng μL^-1 and the final concentration was determined by HPLC-DAD. The amount of adsorbed (mg/g) was calculated by using the formula reported by Vanderborght and Van […]:00002} Were Ci is the initial concentration (mg/L), Ce is the equilibrium concentration (mg/L), V is the volume (L) and m is the mass (g) of the adsorbent. […] The final Ce concentrations were calculated on HPLC. The maximum capacity (Q, mg/g) for each of the six compounds was determined with the above equation. The results are represented in FIG. 12.

[2] = Selectivity: imprinting factor of multi-template sol-gel MIP vs NIP; assay type: binding; details: extraction from protein precipitated milk
Experimental: The selectivity of MIP particles for the six sulfonamides was tested. For these experiments were used SPE cartridges packed with 30 mg of MIP and NIP particles respectively. Standard solutions containing 5 ng μL^−1 were passed through the SPE cartridges by holding imprinted or non-imprinted particles at a flow rate of 1 mL/min by the aid of a vacuum system. Several antibiotics have similar structure to the sulfonamides as well as antibiotics with different structure and functional groups were studied (chloramphenicol, thiamphenicol, florphenicol, flumequine, sulfisoxazole, sulfamethoxazole, sulfadimethoxine). The extraction on each antibiotic based on the optimum conditions and the extracted antibiotics were determined by the HPLC system. Imprinting factor (IF) of MIP particles was determined by the following equation: […] Capacity Studies […] So, SPE was prepared for MIP and NIP. Imprinting factor (IF), which is an indicators, express the adsorption affinity of recognition sites to the imprinted sulfonamides. Table 12 summarizes the IF values for the examined sulfonamides when extraction was carried out from protein precipitated milk.

[3] = Selectivity study of CAP-imprinted sol-gel MIP vs sol-gel NIP in MIPSPE column (imprinting factor, selectivity coefficient), HPLC-UV; assay type: binding; details: for Selectivity Coefficient (SC): SC=IF CAP/IF other analyte, untreated raw milk; for Imprinting Factor (IF): extraction from untreated raw milk, sol-gel MIP vs NIP
Description: To establish the selectivity of a sol-gel MIP for a particular analyte, a non-imprinted polymer (sol-gel NIP) is synthesized in the same way as sol-gel MIP but in the absence of the template.
The IF reflects the tendency of the MIP to selectively recognize and bind the template. Competitive adsorption of MIP and NIP for CAP was investigated in a MIPSPE column system. The IF and the selectivity coefficient (SC) are indicators of the adsorption affinity of recognition sites to the imprinted CAP.
The selectivity of sol-gel MIP particles for CAP was studied. For this purpose, 30 mg of sol-gel MIP or sol-gel NIP particles were packed in SPE cartridges. Aqueous sample solutions containing 10 ng/mL CAP was passed through the SPE cartridges holding imprinted or non-imprinted particles at a flow rate of 1 mL/min by the aid of a vacuum system. Elution of the extracted chloramphenicol was performed using methanol and the concentration of chloramphenicol was determined by the HPLC-UV method.
Imprinting factor (IF) of sol-gel MIP particles was determined by the following equation: IF=Kmip/Knip where Kmip and Knip are the partition coefficient of analyte for sol-gel MIP and sol-gel NIP, respectively, which are determined by K=Cb/Cu where Cb is the amount of CAP bound by the sol-gel MIP or sol-gel NIP and Cu is the concentration of free chloramphenicol that remained in the solution.
Selectivity coefficient (SC) was calculated by the following equation: SC=IFCAP/IFother_analyte

[4] = Retention (sorption) capacity of the CAP-imprinted sol-gel sorbent; assay type: binding; details: 30 mg polymer saturated with 100 mg/L CAP solution
Experimental: To determine the retention capacity (or sorption capacity) of the sol-gel derived CAP-imprinted polymer (maximum amount of the template retained by 1 g of MIP), 30 mg of polymer were saturated with CAP by passing several 5.0 mL aliquots of 100 mg/L CAP solution.

[5] = Stability of CAP standard solutions; assay type: physicochemical
[6] = cited from earlier work
[7] = Honey, Magnetic SPE, LC-MS/MS (ref a)

Row | Compound | Adsorption Capacity, Q [1] [mg/g] | Imprinting Factor (IF) [2] | Imprinting Factor (IF) [3] | also measured
1 | CC(=O)NS(=O)(=O)c1ccc(N)cc1 [Sulfacetamide] | 5.1 | 2.70 |  | 
2 | Nc1ccc(S(=O)(=O)Nc2ncccn2)cc1 [Sulfadiazine] | 4.2 | 1.70 |  | 
3 | Cc1ccnc(NS(=O)(=O)c2ccc(N)cc2)n1 [Sulfamerazine] | 3.7 | 1.13 |  | 
4 | Nc1ccc(S(N)(=O)=O)cc1 [Sulfanilamide] |  | 1.56 |  | 
5 | Nc1ccc(S(=O)(=O)Nc2nccs2)cc1 [Sulfathiazole] | 9.8 | 3.90 |  | 
6 | CS(=O)(=O)c1ccc([C@@H](O)[C@@H](CO)NC(=O)C(Cl)Cl)cc1 [THF, thiamphenicol] |  |  | 1.9 | Selectivity Coefficient (SC) [3]: 2.6
7 | Chloramphenicol [CAP] |  |  | 5 | Retention capacity / adsorption capacity of CAP [4]: 23 mg/g; Retention capacity / adsorption capacity of CAP ([4]; listed as chloramphenicol): 23.0 mg/g; Stability of working standard solutions ([5]; 0.05-20 ng/μL in water, refrigerated): stable for the same period of time; Stability of stock solution ([5]; 100 mg/L in water, kept at 4° C.): at least 3 months; Imprinting Factor ([6]; Honey, MISPE, HPLC-UV (ref f)): 2.2; Adsorption Capacity [6, 7]: 5.53 mg/g; Imprinting Factor [6, 7]: 1.375; Imprinting Factor ([6]; Honey/Urine, MISPE, LC-MS/MS (ref d)): 2.43; Adsorption Capacity ([6]; Milk, MISPE, HPLC-UV (ref e)): 2.22 mg/g; Imprinting Factor ([6]; Milk, MISPE, HPLC-UV (ref e)): 1.38; Imprinting factor (IF), maximum ([3]; CAP, protein precipitated milk, MIP relative to NIP): 9.7
8 | Sulfamethizole |  | 4.52 |  | 
9 | florfenicol [FFC] |  |  | 1.8 | Selectivity Coefficient (SC) [3]: 2.8
